Laboratory results: the Kinase Knowledgebase extract (Sharma et al. 2016)

biological target: PIK3CG (human) (UniProt P48736); experiment: Assessment of PIK3CG Kinase Activity
Sequence (P48736 whole entry, looked up): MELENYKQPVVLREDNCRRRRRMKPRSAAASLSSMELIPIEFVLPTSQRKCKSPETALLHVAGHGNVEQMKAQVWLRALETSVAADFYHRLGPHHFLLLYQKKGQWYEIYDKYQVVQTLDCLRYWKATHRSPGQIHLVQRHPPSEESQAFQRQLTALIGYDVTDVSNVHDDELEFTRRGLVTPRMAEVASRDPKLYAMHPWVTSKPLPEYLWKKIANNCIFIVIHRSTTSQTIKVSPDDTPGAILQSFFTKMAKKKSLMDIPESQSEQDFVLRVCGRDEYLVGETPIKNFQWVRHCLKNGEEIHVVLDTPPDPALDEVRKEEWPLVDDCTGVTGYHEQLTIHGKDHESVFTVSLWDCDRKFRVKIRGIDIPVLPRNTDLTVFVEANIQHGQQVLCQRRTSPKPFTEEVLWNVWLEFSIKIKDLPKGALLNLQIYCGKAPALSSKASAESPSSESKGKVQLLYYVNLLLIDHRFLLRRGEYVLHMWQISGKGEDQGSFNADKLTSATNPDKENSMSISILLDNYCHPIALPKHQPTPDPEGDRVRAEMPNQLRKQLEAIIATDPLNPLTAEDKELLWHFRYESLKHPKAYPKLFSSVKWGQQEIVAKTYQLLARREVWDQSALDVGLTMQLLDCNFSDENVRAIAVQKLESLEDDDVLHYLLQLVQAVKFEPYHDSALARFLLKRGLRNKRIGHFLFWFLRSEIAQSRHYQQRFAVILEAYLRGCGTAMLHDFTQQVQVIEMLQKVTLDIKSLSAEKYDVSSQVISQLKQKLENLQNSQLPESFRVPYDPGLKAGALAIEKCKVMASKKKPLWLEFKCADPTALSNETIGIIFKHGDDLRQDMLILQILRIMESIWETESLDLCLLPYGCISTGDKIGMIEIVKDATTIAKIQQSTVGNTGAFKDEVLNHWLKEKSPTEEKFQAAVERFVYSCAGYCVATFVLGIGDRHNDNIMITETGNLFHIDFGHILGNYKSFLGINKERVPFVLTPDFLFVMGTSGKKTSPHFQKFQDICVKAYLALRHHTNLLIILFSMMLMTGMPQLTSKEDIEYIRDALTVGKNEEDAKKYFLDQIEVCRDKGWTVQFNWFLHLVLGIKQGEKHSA

IC50, < 0.8 µM:
CCc1cnc(CCNC(=O)Nc2nc3c(s2)-c2nc(-c4ccccc4F)ncc2CC3)o1
CCN1CCC2(CCN(C(=O)Nc3nc4c(s3)-c3nc(-c5ccccc5Cl)ncc3CC4)C2)C1 (stereo unspecified)
CCc1noc(CCNC(=O)Nc2nc3c(s2)-c2nc(-c4ccccc4Cl)ncc2CC3)n1
CC(C)(C)OC(=O)N[C@@H]1CCN(C(=O)Nc2nc3c(s2)-c2nc(-c4ccccc4Cl)ncc2CC3)C1
CN(C)C(=O)Nc1nc2c(s1)-c1nc(-c3ccccc3F)ncc1CC2
COCC(=O)N[C@H]1CCN(C(=O)Nc2nc3c(s2)-c2nc(-c4ccccc4Cl)ncc2CC3)C1
Cc1nn(C)cc1CNC(=O)Nc1nc2c(s1)-c1nc(-c3ccccc3Cl)ncc1CC2
O=C(NCc1cccc(NC(=O)N2CCCC2)c1)Nc1nc2c(s1)-c1nc(-c3ccccc3Cl)ncc1CC2
CC(C)(C)OC(=O)N1CCCCC1CNC(=O)Nc1nc2c(s1)-c1nc(-c3ccccc3Cl)ncc1CC2 (stereo unspecified)
O=C(CC1CC1)N[C@H]1CCN(C(=O)Nc2nc3c(s2)-c2nc(-c4ccccc4Cl)ncc2CC3)C1
CCNC(=O)CCNC(=O)Nc1nc2c(s1)-c1nc(-c3ccccc3Cl)ncc1CC2
CC1CC(c2ccc(O)cc2)CN1C(=O)Nc1nc2c(s1)-c1nc(-c3ccccc3Cl)ncc1CC2 (stereo unspecified)
CCn1cnc(CCNC(=O)Nc2nc3c(s2)-c2nc(-c4ccccc4Br)ncc2CC3)c1
CC(C)NC(=O)CCNC(=O)Nc1nc2c(s1)-c1nc(-c3ccccc3Cl)ncc1CC2
O=C(Nc1nc2c(s1)-c1nc(-c3ccccc3Cl)ncc1CC2)N1CC[C@H](NS(=O)(=O)N2CCOCC2)C1
CC(C)(CNc1ccc(C(C)(C)C)cc1)NC(=O)Nc1nc2c(s1)-c1nc(-c3ccccc3Cl)ncc1CC2
CN(C)S(=O)(=O)N[C@@H]1CCN(C(=O)Nc2nc3c(s2)-c2nc(-c4ccccc4Cl)ncc2CC3)C1
CCNC(=O)Nc1nc2c(s1)-c1nc(-c3ccccc3Cl)ncc1CC2
O=C(N[C@H]1CCN(C(=O)Nc2nc3c(s2)-c2nc(-c4ccccc4Cl)ncc2CC3)C1)C(F)F
O=C(CCNC(=O)Nc1nc2c(s1)-c1nc(-c3ccccc3Cl)ncc1CC2)NCC1CC1
CNC(=O)CCNC(=O)Nc1nc2c(s1)-c1nc(-c3ccccc3Cl)ncc1CC2
